In patent US10544143B2, “4-azaindole compounds” (BRISTOL-MYERS SQUIBB COMPANY, priority 2017, dated 2020):
pIC50: −log10 of the molar value. Read-outs that look alike come from different tables or passages of the source.

How the values were obtained:
human TLR9 = human TLR9 (Homo sapiens (Human), UniProt Q9NR96); experiment: TLR9 inhibition reporter assay (HEK-Blue SEAP); conditions: ODN2006 5 nM;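 also: SEAP driven by an IFN-β minimal promoter with NF-κB and AP-1 sites, read after 22 h, compounds dosed 0.05 nM–50 µM, inhibition scaled between agonist plus DMSO and reference-inhibitor wells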
human TLR8 = human TLR8 (Homo sapiens (Human), UniProt Q9NR97); experiment: TLR8 inhibition reporter assay (HEK-Blue SEAP); conditions: R848 15.9 μM;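 also: SEAP driven by IFN-β minimal promoter carrying NF-κB and AP-1 sites, compounds dosed 0.05 nM to 50 µM for 22 h, inhibition scaled between agonist-plus-DMSO and reference-inhibitor wells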
human TLR7 = human TLR7 (Homo sapiens (Human), UniProt Q9NYK1); experiment: TLR7 inhibition reporter assay (HEK-Blue SEAP); assay type: cell-based; conditions: HEK-Blue human TLR7 cells, gardiquimod 7.5 μM
[1] = read-out: TLR9 IC50, HEK-Blue human TLR9 cells
[2] = read-out: TLR8 IC50, HEK-Blue human TLR8 cells

Sequence of human TLR7 (Q9NYK1 27-1049): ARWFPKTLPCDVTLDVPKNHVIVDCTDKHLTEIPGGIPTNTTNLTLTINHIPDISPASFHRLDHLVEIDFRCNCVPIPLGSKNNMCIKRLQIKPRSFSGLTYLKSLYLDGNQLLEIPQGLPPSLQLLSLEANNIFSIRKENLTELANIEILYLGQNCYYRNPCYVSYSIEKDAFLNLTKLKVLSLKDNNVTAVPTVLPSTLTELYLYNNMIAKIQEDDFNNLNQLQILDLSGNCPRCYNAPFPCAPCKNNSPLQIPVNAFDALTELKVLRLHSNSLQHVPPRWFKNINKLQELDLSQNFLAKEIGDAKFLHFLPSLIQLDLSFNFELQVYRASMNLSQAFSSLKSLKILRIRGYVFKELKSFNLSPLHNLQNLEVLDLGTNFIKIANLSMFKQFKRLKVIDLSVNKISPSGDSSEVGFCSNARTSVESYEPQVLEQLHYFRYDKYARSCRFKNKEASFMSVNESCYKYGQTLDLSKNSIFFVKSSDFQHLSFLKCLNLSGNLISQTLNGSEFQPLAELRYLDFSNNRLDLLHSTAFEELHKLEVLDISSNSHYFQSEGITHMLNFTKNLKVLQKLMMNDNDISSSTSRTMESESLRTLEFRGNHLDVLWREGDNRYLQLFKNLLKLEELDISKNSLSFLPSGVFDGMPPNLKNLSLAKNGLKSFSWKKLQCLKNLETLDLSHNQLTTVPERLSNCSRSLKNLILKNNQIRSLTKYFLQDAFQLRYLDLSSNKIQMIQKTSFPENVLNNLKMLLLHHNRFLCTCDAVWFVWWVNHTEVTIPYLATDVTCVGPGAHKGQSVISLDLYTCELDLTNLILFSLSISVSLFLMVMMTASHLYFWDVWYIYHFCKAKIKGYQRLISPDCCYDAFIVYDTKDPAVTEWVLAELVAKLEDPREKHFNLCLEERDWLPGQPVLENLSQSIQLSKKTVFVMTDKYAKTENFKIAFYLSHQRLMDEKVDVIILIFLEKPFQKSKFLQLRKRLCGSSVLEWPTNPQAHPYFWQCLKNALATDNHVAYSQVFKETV
Sequence of human TLR8 (Q9NR97 27-1041): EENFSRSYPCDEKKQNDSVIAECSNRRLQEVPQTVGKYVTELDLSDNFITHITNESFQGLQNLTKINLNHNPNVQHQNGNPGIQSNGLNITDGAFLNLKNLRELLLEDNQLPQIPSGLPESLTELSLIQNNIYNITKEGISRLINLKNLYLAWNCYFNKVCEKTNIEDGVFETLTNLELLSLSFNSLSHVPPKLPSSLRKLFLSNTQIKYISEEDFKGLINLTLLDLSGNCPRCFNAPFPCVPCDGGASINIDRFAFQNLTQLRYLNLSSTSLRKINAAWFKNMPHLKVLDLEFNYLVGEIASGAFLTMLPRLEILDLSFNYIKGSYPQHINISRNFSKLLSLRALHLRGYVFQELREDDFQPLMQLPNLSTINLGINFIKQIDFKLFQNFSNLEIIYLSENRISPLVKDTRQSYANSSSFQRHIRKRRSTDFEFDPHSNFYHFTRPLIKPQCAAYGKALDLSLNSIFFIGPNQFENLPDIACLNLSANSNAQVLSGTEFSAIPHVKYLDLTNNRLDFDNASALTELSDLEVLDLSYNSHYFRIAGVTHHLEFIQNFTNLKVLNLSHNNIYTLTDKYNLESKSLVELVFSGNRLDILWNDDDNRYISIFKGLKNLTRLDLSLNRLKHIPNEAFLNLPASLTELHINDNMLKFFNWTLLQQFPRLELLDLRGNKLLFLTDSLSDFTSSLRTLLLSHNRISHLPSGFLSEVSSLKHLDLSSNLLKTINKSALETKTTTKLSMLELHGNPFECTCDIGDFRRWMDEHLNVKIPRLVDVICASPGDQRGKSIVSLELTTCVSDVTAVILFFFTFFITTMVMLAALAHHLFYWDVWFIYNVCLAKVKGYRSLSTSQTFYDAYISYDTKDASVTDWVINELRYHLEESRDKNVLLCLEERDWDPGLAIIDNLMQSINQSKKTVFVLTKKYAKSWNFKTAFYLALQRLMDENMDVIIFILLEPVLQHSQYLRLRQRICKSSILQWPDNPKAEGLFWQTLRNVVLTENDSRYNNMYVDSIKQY
Sequence of human TLR9 (Q9NR96 26-1032): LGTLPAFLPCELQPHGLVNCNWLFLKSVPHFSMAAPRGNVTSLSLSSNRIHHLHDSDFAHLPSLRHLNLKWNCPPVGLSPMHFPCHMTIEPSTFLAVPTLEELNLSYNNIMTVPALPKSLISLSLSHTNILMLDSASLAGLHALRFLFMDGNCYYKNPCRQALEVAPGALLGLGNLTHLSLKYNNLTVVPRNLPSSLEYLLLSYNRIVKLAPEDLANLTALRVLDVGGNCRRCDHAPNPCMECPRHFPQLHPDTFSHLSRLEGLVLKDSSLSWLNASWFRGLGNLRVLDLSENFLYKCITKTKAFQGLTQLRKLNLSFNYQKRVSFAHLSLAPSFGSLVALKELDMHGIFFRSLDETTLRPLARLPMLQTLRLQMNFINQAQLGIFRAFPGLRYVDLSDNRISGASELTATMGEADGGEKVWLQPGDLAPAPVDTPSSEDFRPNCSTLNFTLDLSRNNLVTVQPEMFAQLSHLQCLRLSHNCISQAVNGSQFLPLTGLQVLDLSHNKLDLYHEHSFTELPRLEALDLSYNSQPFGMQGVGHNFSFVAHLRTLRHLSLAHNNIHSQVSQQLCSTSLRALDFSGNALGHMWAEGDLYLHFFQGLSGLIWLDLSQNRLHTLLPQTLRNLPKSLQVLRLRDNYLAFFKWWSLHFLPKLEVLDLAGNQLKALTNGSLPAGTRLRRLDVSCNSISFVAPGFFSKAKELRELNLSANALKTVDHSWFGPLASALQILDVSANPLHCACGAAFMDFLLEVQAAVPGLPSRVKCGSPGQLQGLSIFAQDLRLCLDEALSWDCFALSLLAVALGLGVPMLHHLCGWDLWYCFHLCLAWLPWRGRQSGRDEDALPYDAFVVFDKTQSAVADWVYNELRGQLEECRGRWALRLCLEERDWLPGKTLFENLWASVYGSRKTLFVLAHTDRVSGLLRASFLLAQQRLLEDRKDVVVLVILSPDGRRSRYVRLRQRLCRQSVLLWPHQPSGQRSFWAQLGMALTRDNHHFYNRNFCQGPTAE

SMILES	pIC50 (human TLR9; [1])	pIC50 (human TLR8; [2])	pIC50 (human TLR7)	pIC50 (human TLR9; TLR9 IC50, HEK-Blue human TLR9 cells)	pIC50 (human TLR8; TLR8 IC50, HEK-Blue human TLR8 cells)
Cc1c(-c2[nH]c3ccc(N4C[C@@H](C)N(C(=O)CN(C(C)C)C(C)C)C[C@@H]4C)nc3c2C(C)C)cn2ncnc2c1C [Example 910]	5.27	9.07	9.17	–	–
Cc1c(-c2[nH]c3ccc(N4C[C@@H](C)N(C(=O)CN(C)C(C)(C)C)C[C@@H]4C)nc3c2C(C)C)cn2ncnc2c1C [Example 911]	5.15	8.82	9.17	–	–
CCN(CC(=O)N1C[C@H](C)N(c2ccc3[nH]c(-c4cn5ncnc5c(C)c4C)c(C(C)C)c3n2)C[C@H]1C)C(C)C [Example 912]	5.03	8.66	9.01	–	–
Cc1c(-c2[nH]c3ccc(N4[C@@H]5CC[C@H]4CN(C(=O)CCN(C)C)C5)nc3c2C(C)C)cn2ncnc2c1C [Example 913]	5.05	8.74	9.00	–	–
Cc1c(-c2[nH]c3ccc(N4C[C@@H](C)N(C(=O)CCN(C)C(C)(C)C)C[C@@H]4C)nc3c2C(C)C)cn2ncnc2c1C [Example 914]	5.22	9.03	9.14	–	–
Cc1c(-c2[nH]c3ccc(N4CCN(C(=O)CN5CC(C)(C)C5)CC4)nc3c2C(C)C)cn2ncnc2c1C [Example 915]	4.95	9.00	8.64	–	–
COC1CN(CC(=O)N2CCN(c3ccc4[nH]c(-c5cn6ncnc6c(C)c5C)c(C(C)C)c4n3)CC2)C1 [Example 916]	4.84	7.96	[…]	–	–
Cc1c(-c2[nH]c3ccc(N4CCN(C(=O)CN5CCC(F)(F)C5)CC4)nc3c2C(C)C)cn2ncnc2c1C [Example 919]	4.86	9.00	7.64	–	–
Cc1c(-c2[nH]c3ccc(N4[C@@H]5CC[C@H]4CN(C(=O)CN4CC6(COC6)C4)C5)nc3c2C(C)C)cn2ncnc2c1C [Example 920]	4.92	8.23	8.59	–	–
Cc1c(-c2[nH]c3ccc(N4[C@@H]5CC[C@H]4CN(C(=O)CN4CCCC4)C5)nc3c2C(C)C)cn2ncnc2c1C [Example 921]	5.28	8.47	9.21	–	–
CCN(C)CC(=O)N1C[C@H]2CC[C@@H](C1)N2c1ccc2[nH]c(-c3cn4ncnc4c(C)c3C)c(C(C)C)c2n1 [Example 922]	5.03	8.68	9.26	–	–
Cc1c(-c2[nH]c3ccc(N4[C@@H]5CC[C@H]4CN(C(=O)CN(C)C(C)C)C5)nc3c2C(C)C)cn2ncnc2c1C [Example 923]	5.18	8.44	8.92	–	–
Cc1c(-c2[nH]c3ccc(N4[C@@H]5CC[C@H]4CN(C(=O)CN(C)C(C)(C)C)C5)nc3c2C(C)C)cn2ncnc2c1C [Example 924]	5.14	8.31	8.77	–	–
Cc1c(-c2[nH]c3ccc(N4[C@@H]5CC[C@H]4CN(C(=O)CN(CCO)C(C)(C)C)C5)nc3c2C(C)C)cn2ncnc2c1C [Example 925]	5.00	8.04	9.10	–	–
Cc1c(-c2[nH]c3ccc(N4C[C@@H](C)N(C(=O)CN(C)C(C)(C)C)[C@H](C)C4)nc3c2C(C)C)cn2ncnc2c1C [Example 926]	5.52	8.52	8.48	–	–
CCN(C)CC(=O)N1[C@H](C)CN(c2ccc3[nH]c(-c4cn5ncnc5c(C)c4C)c(C(C)C)c3n2)C[C@H]1C [Example 927]	5.36	8.43	8.54	–	–
Cc1c(-c2[nH]c3ccc(N4C[C@@H](C)N(C(=O)CN5CCCC5)[C@H](C)C4)nc3c2C(C)C)cn2ncnc2c1C [Example 928]	5.44	8.16	8.82	–	–
Cc1c(-c2[nH]c3ccc(N4C[C@@H](C)N(C(=O)CN5CC6(COC6)C5)[C@H](C)C4)nc3c2C(C)C)cn2ncnc2c1C [Example 929]	5.29	8.41	8.59	–	–
Cc1c(-c2[nH]c3ccc(N4C[C@@H](C)N(C(=O)CN(CCO)C(C)(C)C)[C@H](C)C4)nc3c2C(C)C)cn2ncnc2c1C [Example 930]	4.61	8.13	7.66	–	–
Cc1c(-c2[nH]c3ccc(N4CCN(C(=O)CN5CC6(COC6)C5)C[C@H]4C)nc3c2C(C)C)cn2ncnc2c1C [Example 931]	4.83	8.41	8.60	–	–
CCN(C)CC(=O)N1CCN(c2ccc3[nH]c(-c4cn5ncnc5c(C)c4C)c(C(C)C)c3n2)[C@@H](C)C1 [Example 932]	4.84	8.00	9.18	–	–
Cc1c(-c2[nH]c3ccc(N4CCN(C(=O)CN(C)C(C)C)C[C@H]4C)nc3c2C(C)C)cn2ncnc2c1C [Example 933]	4.73	7.74	9.20	–	–
Cc1c(-c2[nH]c3ccc(N4CCN(C(=O)CN(C)C(C)(C)C)C[C@H]4C)nc3c2C(C)C)cn2ncnc2c1C [Example 934]	5.01	8.07	9.07	–	–

SMILES	pIC50 (human TLR9; [1])	pIC50 (human TLR8; [2])	pIC50 (human TLR7)	pIC50 (human TLR9; TLR9 IC50, HEK-Blue human TLR9 cells)	pIC50 (human TLR8; TLR8 IC50, HEK-Blue human TLR8 cells)
Cc1c(-c2[nH]c3ccc(N4C[C@H](C)N(C(=O)CN5CC6(COC6)C5)C[C@H]4C)nc3c2C(C)C)cn2ncnc2c1C [Example 935]	5.25	8.54	9.32	–	–
Cc1c(-c2[nH]c3ccc(N4C[C@H](C)N(C(=O)CN5CCCC5)C[C@H]4C)nc3c2C(C)C)cn2ncnc2c1C [Example 936]	5.33	8.46	9.25	–	–
CCN(C)CC(=O)N1C[C@@H](C)N(c2ccc3[nH]c(-c4cn5ncnc5c(C)c4C)c(C(C)C)c3n2)C[C@@H]1C [Example 937]	4.85	7.85	9.28	–	–
Cc1c(-c2[nH]c3ccc(N4C[C@H](C)N(C(=O)CN(C)C(C)C)C[C@H]4C)nc3c2C(C)C)cn2ncnc2c1C [Example 938]	5.07	8.31	8.59	–	–
Cc1c(-c2[nH]c3ccc(N4C[C@H](C)N(C(=O)CN(C)C(C)(C)C)C[C@H]4C)nc3c2C(C)C)cn2ncnc2c1C [Example 939]	4.93	8.01	8.82	–	–
Cc1c(-c2[nH]c3ccc(N4CCN(C(=O)CN5CC6(COC6)C5)[C@H](C)C4)nc3c2C(C)C)cn2ncnc2c1C [Example 940]	5.08	9.18	8.77	–	–
Cc1c(-c2[nH]c3ccc(N4CCN(C(=O)CN5CCCC5)[C@H](C)C4)nc3c2C(C)C)cn2ncnc2c1C [Example 941]	5.14	9.18	9.18	–	–
CCN(C)CC(=O)N1CCN(c2ccc3[nH]c(-c4cn5ncnc5c(C)c4N)c(C(C)C)c3n2)C[C@H]1C [Example 942]	4.92	8.47	9.30	–	–
Cc1c(-c2[nH]c3ccc(N4CCN(C(=O)CN(C)C(C)C)[C@H](C)C4)nc3c2C(C)C)cn2ncnc2c1C [Example 943]	5.00	8.96	8.96	–	–
Cc1c(-c2[nH]c3ccc(N4CCN(C(=O)CN(C)C(C)(C)C)[C@H](C)C4)nc3c2C(C)C)cn2ncnc2c1C [Example 944]	4.77	8.31	8.51	–	–
Cc1c(-c2[nH]c3ccc(N4CCN(C(=O)CC(C)(C)N5CC6(COC6)C5)CC4)nc3c2C(C)C)cn2ncnc2c1C [Example 945]	5.11	9.03	8.32	–	–
Cc1c(-c2[nH]c3ccc(N4CCN(C(=O)CN5CC(C)(O)C5)CC4)nc3c2C(C)C)cn2ncnc2c1C [Example 946]	5.05	8.74	8.85	–	–
Cc1c(-c2[nH]c3ccc(N4CCN(C(=O)CN5CCC6(CCOC6)C5)CC4)nc3c2C(C)C)cn2ncnc2c1C (stereo not drawn) [Example 947]	5.06	9.18	8.72	–	–
Cc1c(-c2[nH]c3ccc(N4CCN(C(=O)CN5CCC(C)(O)C5)CC4)nc3c2C(C)C)cn2ncnc2c1C (stereo not drawn) [Example 948]	4.89	8.85	8.55	–	–
Cc1c(-c2[nH]c3ccc(N4CCN(C(=O)CN(C)CC(C)(C)O)CC4)nc3c2C(C)C)cn2ncnc2c1C [Example 949]	4.51	8.80	8.59	–	–
Cc1c(-c2[nH]c3ccc(N4CCN(C(=O)CN5CCOCC5(C)C)CC4)nc3c2C(C)C)cn2ncnc2c1C [Example 950]	4.44	8.31	8.14	–	–
Cc1c(-c2[nH]c3ccc(N4CCN(C(=O)CN5CC6(C5)CS(=O)(=O)C6)CC4)nc3c2C(C)C)cn2ncnc2c1C [Example 951]	< 4.30	8.82	8.19	–	–
[2H]C([2H])([2H])NCC(=O)N1CCN(c2ccc3[nH]c(-c4cn5ncnc5c(C)c4C)c(C(C)C)c3n2)CC1 [Example 952]	–	–	8.74	5.10	9.15
Cc1c(-c2[nH]c3ccc(N4CCN(C(=O)CN(CCO)C(C)(C)C)C[C@H]4C)nc3c2C(C)C)cn2ncnc2c1C [Example 953]	4.92	8.28	9.04	–	–
Cc1c(-c2[nH]c3ccc(N4C[C@H](C)N(C(=O)CN(CCO)C(C)(C)C)C[C@H]4C)nc3c2C(C)C)cn2ncnc2c1C [Example 954]	4.68	7.44	8.72	–	–
Cc1c(-c2[nH]c3ccc(N4CCN(C(=O)CN(CCO)C(C)(C)C)[C@H](C)C4)nc3c2C(C)C)cn2ncnc2c1C [Example 955]	4.69	8.70	9.12	–	–
Cc1c(-c2[nH]c3ccc(N4CCN(C(=O)CN5CC6(CCOC6)C5)CC4)nc3c2C(C)C)cn2ncnc2c1C [Example 956]	5.02	8.72	9.00	–	–
Cc1c(-c2[nH]c3ccc(N4CCN(C(=O)CN5CCC6(COC6)C5)CC4)nc3c2C(C)C)cn2ncnc2c1C [Example 957]	4.61	8.54	9.04	–	–
